Test results from BindingDB's records for doi:10.1111/cbdd.12787 (Shandong University, 2016).

Tests used:
Assay in all cases: In vitro HDACs Inhibition Fluorescence Assay
Histone deacetylase 1 = Histone deacetylase 1 (Homo sapiens, UniProt Q13547)
Description: (§1) Afterincubation at 37 °C for 10 min, 40 μL of fluorogenic substrate (Boc-Lys(Ac)-AMC for HeLa nuclear extracts; Ac-Leu- GlyLyS(Ac)-AMC for HDAC1, HDAC6, and HDAC11; Ac-Leu-GlyLyS(Tfa)-AMC for HDAC4 and HDAC8) was added, and then, the mixture was incubated at 37 °C for 30 min. The mixture was stopped by addition of 100 μL of developer containing trypsin and TSA afterward. Over the next incubation at 37 °C for 20 min, fluorescence intensity was measured using a microplate reader at excitation and emission wavelengths of 390 and 460 nm, respectively.

Histone deacetylase 11 = biological target: T1, Histone deacetylase 11 (Homo sapiens, UniProt Q96DB2)
T1 sequence (Q96DB2 whole entry): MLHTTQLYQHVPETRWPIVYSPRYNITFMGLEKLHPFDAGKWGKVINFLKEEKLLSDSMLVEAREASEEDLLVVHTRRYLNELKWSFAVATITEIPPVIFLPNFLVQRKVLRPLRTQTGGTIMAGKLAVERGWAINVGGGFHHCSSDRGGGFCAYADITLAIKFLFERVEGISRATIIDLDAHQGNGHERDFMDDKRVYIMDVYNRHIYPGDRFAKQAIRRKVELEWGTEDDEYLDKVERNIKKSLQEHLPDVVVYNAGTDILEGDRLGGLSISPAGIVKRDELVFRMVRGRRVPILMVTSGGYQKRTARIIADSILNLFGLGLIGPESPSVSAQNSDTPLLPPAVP
Description: as §1

Histone deacetylase 4 = Histone deacetylase 4 (Homo sapiens, UniProt P56524)
Description: as §1

Histone deacetylase 6 = biological target: T2, Histone deacetylase 6 (Homo sapiens, UniProt Q9UBN7)
T2 sequence (Q9UBN7 whole entry): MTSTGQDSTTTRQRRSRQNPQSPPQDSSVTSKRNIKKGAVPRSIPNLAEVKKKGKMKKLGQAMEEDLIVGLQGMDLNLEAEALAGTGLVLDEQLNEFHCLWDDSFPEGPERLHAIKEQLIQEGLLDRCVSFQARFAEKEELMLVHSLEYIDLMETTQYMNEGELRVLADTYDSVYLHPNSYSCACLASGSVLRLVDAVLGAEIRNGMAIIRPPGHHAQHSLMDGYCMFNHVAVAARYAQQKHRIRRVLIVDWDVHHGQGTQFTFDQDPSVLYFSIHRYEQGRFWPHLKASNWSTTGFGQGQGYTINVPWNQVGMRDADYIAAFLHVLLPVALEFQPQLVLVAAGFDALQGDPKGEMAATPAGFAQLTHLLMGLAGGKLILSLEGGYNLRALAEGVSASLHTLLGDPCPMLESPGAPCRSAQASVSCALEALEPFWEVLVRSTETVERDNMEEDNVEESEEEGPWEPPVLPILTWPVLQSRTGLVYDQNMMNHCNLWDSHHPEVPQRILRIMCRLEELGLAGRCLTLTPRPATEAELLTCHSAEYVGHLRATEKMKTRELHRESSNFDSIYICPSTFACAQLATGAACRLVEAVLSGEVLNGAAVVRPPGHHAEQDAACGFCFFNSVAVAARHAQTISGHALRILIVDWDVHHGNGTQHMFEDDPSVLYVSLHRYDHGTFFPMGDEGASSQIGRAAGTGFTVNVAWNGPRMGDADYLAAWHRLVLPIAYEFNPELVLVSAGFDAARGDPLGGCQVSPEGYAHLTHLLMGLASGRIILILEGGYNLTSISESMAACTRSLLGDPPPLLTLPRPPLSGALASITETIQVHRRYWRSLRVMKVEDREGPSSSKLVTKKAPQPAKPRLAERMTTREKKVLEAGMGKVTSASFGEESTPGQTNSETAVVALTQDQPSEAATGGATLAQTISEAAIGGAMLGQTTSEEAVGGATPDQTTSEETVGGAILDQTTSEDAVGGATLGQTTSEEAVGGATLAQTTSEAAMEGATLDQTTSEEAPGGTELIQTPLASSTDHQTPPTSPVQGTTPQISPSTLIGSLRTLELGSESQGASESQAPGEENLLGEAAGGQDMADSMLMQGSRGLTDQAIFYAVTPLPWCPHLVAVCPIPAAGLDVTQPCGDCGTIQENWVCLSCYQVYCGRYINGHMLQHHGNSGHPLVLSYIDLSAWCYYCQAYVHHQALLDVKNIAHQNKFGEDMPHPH
Description: as §1

Histone deacetylase 8 = biological target: T3, Histone deacetylase 8 (Homo sapiens, UniProt Q9BY41)
T3 sequence (Q9BY41 whole entry): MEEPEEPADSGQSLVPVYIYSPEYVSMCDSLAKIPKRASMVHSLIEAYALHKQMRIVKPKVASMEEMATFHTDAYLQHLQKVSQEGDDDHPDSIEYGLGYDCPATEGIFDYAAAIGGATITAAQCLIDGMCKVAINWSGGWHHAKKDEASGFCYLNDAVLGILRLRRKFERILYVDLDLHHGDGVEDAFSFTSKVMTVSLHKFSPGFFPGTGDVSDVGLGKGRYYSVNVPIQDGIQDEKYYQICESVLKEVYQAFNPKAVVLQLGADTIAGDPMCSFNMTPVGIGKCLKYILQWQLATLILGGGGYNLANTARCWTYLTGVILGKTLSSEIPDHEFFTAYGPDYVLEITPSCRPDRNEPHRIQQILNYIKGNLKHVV
Description: as §1

Chain of Histone deacetylase 4 (P56524 whole entry): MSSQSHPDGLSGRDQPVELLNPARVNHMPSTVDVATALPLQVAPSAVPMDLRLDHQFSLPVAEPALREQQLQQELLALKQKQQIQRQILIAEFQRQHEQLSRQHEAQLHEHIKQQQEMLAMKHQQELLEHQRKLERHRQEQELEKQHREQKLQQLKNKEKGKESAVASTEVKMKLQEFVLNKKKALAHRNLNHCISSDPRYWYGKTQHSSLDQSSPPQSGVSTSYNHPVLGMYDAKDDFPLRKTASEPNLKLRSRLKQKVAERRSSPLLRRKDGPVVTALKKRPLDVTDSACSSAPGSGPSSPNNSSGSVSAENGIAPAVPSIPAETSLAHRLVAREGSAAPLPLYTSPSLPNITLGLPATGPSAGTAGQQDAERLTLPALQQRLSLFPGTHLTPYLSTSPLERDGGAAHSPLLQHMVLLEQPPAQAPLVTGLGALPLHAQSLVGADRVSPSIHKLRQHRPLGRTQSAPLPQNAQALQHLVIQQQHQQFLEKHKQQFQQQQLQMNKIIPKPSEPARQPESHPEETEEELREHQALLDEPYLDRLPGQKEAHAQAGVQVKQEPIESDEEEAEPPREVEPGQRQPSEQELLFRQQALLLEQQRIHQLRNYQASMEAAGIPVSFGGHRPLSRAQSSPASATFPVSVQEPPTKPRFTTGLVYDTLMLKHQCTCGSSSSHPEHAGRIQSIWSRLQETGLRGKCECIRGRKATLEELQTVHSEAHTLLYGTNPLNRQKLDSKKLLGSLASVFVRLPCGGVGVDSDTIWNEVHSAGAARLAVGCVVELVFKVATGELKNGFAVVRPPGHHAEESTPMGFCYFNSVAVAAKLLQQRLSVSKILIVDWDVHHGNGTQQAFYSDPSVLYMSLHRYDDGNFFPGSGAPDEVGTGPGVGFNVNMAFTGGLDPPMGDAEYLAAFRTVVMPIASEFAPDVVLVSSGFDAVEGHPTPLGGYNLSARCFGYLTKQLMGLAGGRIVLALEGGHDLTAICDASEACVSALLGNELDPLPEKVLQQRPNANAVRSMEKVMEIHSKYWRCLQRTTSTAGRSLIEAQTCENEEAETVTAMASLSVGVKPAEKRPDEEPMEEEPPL
Chain of Histone deacetylase 1 (Q13547 whole entry): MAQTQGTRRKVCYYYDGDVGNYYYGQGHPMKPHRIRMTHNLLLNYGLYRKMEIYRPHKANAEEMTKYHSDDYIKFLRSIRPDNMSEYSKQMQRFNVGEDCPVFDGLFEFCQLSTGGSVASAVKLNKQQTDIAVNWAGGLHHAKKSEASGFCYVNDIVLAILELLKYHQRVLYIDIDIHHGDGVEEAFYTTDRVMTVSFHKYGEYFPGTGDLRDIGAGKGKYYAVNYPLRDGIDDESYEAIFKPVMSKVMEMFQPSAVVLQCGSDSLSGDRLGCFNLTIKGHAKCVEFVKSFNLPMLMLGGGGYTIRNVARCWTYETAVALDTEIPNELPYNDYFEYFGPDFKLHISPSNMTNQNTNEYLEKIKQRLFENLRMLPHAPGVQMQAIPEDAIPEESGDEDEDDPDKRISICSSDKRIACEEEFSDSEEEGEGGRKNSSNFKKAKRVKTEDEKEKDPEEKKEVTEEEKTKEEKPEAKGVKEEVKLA

SMILES | IC50 (Histone deacetylase 1) | IC50 (Histone deacetylase 11) | IC50 (Histone deacetylase 4) | IC50 (Histone deacetylase 6) | IC50 (Histone deacetylase 8)
O=C(/C=C/c1cccc(S(=O)(=O)N[C@H](C(=O)Nc2cccc3ccccc23)c2ccccc2)c1)NO [(S,E)-N-hydroxy-3-(3-(N-(2-(naphthalen-1-ylamino)-2-oxo-1-phenylethyl)sulfamoyl)phenyl)acrylamide (10s)] | 0.093 µM | 3.85 µM | 23 µM | 0.08 µM | 0.659 µM
O=C(/C=C/c1cccc(S(=O)(=O)Nc2ccccc2)c1)NO [Belinostat] | – | – | 9.85 µM | – | –
